Like-named read-outs stand apart in the source and are kept apart here.
How the values were obtained:
NF-κB = NF-κB assay: THP1-NF-κB-LUC cells, LPS-stimulated secreted luciferase; assay type: cell-based; conditions: THP1-NF-κB-LUC cells, read-out: IC50 (NF-κB assay)
Summary of the method: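 THP1-NF-κB-LUC cells (25k/well) were pretreated with compounds for 2 h, then stimulated with LPS (10 ng/mL) for 18 h. Secreted luciferase was measured and normalized to vehicle, and IC50 was fitted from the concentration series.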

TNF release = test: TNF assay: TNF release from LPS-stimulated human PBMCs (TNF ELISA); assay type: cell-based; conditions: PBMC, read-out: IC50 (TNF assay)
Summary of the method: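 TNF ELISA on supernatants read-out; cells were 10k human PBMCs/well given LPS at 10 ng/mL for 18 h after a 2 h compound pre-incubation across a concentration series, with IC50 derived for suppression of TNF secretion.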

[1] = LPS-stimulated human PBMCs, TNF ELISA
[2] = compounds 2 hours before LPS (10 ng/mL) for 18 hours, secreted luciferase
[3] = human PBMCs, compounds 2 hours before LPS (10 ng/ml) for 18 hours, supernatant TNF ELISA

| SMILES | IC50 (NF-κB; LPS-stimulated) [µM] | IC50 (TNF release; [1]) [µM] | IC50 (NF-κB; [2]) [µM] | IC50 (TNF release; [3]) [µM] |
| --- | --- | --- | --- | --- |
| C#CCNC(=O)c1ccc2nc(-c3ccc(Cl)cc3)c(-c3ccc(Cl)cc3)nc2c1 [BC19451] | 0.1 to 1 | > 10 |  |  |
| O=C(NCc1ccccn1)Nc1ccc2nc(-c3ccc(F)cc3)c(-c3ccc(F)cc3)nc2c1 [BC19570] | 0.1 to 1 | > 10 |  |  |
| CCNS(=O)(=O)c1ccc2nc(-c3ccc(F)cc3)c(-c3ccc(F)cc3)nc2c1 [BC19556] | 0.1 to 1 | > 10 |  |  |
| Cn1ncc2c(-c3ccc4nc(-c5ccc(F)cc5)c(-c5ccc(F)cc5)nc4c3)cccc21 [BC19305] | > 10 | > 10 |  |  |
| COc1ccc(OC)c2c(=O)c(S(=O)(=O)c3ccc(F)c(F)c3)c[nH]c12 [BC19255] |  |  | 1 to 10 | > 10 |
| Cc1ccncc1-c1ccc2nc(-c3ccc(F)cc3)c(-c3ccc(F)cc3)nc2c1 [BC19304] | 1 to 10 | > 10 |  |  |
| O=S(=O)(c1ccc(Cl)cc1)c1nc(-c2ccccc2F)sc1[S+]([O-])CC1CC1 (stereo not drawn) [BC19632] | > 10 | > 10 |  |  |
| CC#CC(=O)Nc1ccc2nc(-c3ccc(F)cc3)c(-c3ccc(F)cc3)nc2c1 [BC19314] | < 0.1 | 1 to 10 |  |  |
| O=C(NCCCO)Nc1ccc2nc(-c3ccc(F)cc3)c(-c3ccc(F)cc3)nc2c1 [BC19575] | 0.1 to 1 | > 10 |  |  |
| CNc1cccc2cc(S(=O)(=O)c3ccccc3)cnc12 [BC19325] |  |  | > 10 | 1 to 10 |
| CCC[S+]([O-])c1oc(-c2ccccc2)nc1S(=O)(=O)c1cccc(F)c1 (stereo not drawn) [BC19268] | 0.1 to 1 | < 0.1 |  |  |
| CC(C)CC1Oc2c(cc(Br)cc2S(=O)(=O)Nc2ccc(F)cc2F)NC1=O (stereo not drawn) [BC19769] |  |  | < 0.1 | > 10 |
| CCc1cccc(NS(=O)(=O)c2cc(Br)cc3c2OC(CC)C(=O)N3C)c1 (stereo not drawn) [BC19915] |  |  | < 0.1 | > 10 |
| CN(C)CCCNC(=O)Nc1ccc2nc(-c3ccc(F)cc3)c(-c3ccc(F)cc3)nc2c1 [BC19573] | 0.1 to 1 | 0.1 to 1 |  |  |
| COc1ccc(NS(=O)(=O)c2cc3c(cc2Br)NC(=O)CO3)cc1 [BC19137] |  |  | 0.1 to 1 | > 10 |
| CC(C)CC1Oc2c(cc(Br)cc2S(=O)(=O)Nc2ccccc2)NC1=O (stereo not drawn) [BC19761] |  |  | 0.1 to 1 | > 10 |
| CCC1Oc2cc(S(=O)(=O)NCc3ccc(OC(F)(F)F)cc3)c(Br)cc2NC1=O (stereo not drawn) [BC19369] |  |  | > 10 | > 10 |
| O=C1CCOc2cc(S(=O)(=O)Nc3ccc(F)cc3Cl)c(Br)cc2N1 [BC19658] | > 10 | > 10 |  |  |
| CS(=O)(=O)c1sc(-c2ccccc2)nc1S(=O)(=O)c1ccc(Cl)cc1 [BC19471] | 1 to 10 | 1 to 10 |  |  |

| SMILES | IC50 (NF-κB; LPS-stimulated) [µM] | IC50 (TNF release; [1]) [µM] | IC50 (NF-κB; [2]) [µM] | IC50 (TNF release; [3]) [µM] |
| --- | --- | --- | --- | --- |
| CCCS(=O)(=O)c1oc(-c2ccccc2)nc1S(=O)(=O)c1ccc(C)cc1 [BC19264] | < 0.1 | 0.1 to 1 |  |  |
| CCOc1ccc(NS(=O)(=O)c2cc3c(cc2Cl)NC(=O)C(C)O3)cc1 (stereo not drawn) [BC19281] |  |  | 0.1 to 1 | > 10 |
| CN(C)CCNC(=O)Nc1ccc2nc(-c3ccc(F)cc3)c(-c3ccc(F)cc3)nc2c1 [BC19564] | < 0.1 | 1 to 10 |  |  |
| CCC1Oc2c(cc(Br)cc2S(=O)(=O)NCc2ccc(OC(F)(F)F)cc2)NC1=O (stereo not drawn) [BC19375] |  |  | < 0.1 | > 10 |
| O=C(NCC1CC1)Nc1ccc2nc(-c3ccc(F)cc3)c(-c3ccc(F)cc3)nc2c1 [BC19569] | 0.1 to 1 | > 10 |  |  |
| CCC1Oc2c(cc(Cl)cc2S(=O)(=O)Nc2ccc(OC)c(Cl)c2)NC1=O (stereo not drawn) [BC19744] |  |  | < 0.1 | 1 to 10 |
| COc1ccc(NS(=O)(=O)c2cc3c(cc2Br)NC(=O)CCO3)cc1 [BC19692] | > 10 | > 10 |  |  |
| CCC[S+]([O-])c1sc(-c2ccc(F)cc2)nc1S(=O)(=O)c1ccc(Cl)cc1 (stereo not drawn) [BC19414] | > 10 | > 10 |  |  |
| COCCS(=O)(=O)c1oc(-c2cccc(F)c2)nc1S(=O)(=O)c1ccc(Cl)cc1 [BC19352] | 0.1 to 1 | < 0.1 |  |  |
| O=S(=O)(CC1CC1)c1[nH]c(-c2ccccc2)nc1S(=O)(=O)c1ccc(Cl)cc1 [BC19467] | 1 to 10 | 1 to 10 |  |  |
| Cn1c(-c2ccccc2)nc(S(=O)(=O)c2ccc(F)cc2)c1S(=O)(=O)CC1CC1 [BC19634] | > 10 | > 10 |  |  |
| CN1CCN(C(=O)c2ccc3nc(C(F)(F)F)c(-c4cc(F)cc(F)c4)nc3c2)CC1 [BC19108] | > 10 | > 10 |  |  |
| CC1Oc2cc(S(=O)(=O)Nc3ccc(F)cc3Cl)c(Cl)cc2NC1=O (stereo not drawn) [BC19719] |  |  | 0.1 to 1 | > 10 |
| CC1Oc2cc(S(=O)(=O)NCc3ccc(C(F)(F)F)cc3)c(Br)cc2NC1=O (stereo not drawn) [BC19358] |  |  | > 10 | > 10 |
| CC(C)CS(=O)(=O)c1sc(C2CCCCC2)nc1S(=O)(=O)c1ccc(Cl)cc1 [BC19638] | > 10 | > 10 |  |  |
| CC1Oc2c(cc(Br)cc2S(=O)(=O)NC2CCC(O)CC2)NC1=O (stereo not drawn) [BC19366] |  |  | > 10 | > 10 |
| COCC[S+]([O-])c1oc(-c2ccccc2)nc1S(=O)(=O)c1cccc(F)c1 (stereo not drawn) [BC19272] | < 0.1 | < 0.1 |  |  |
| O=S(=O)(CC1CC1)c1sc(-c2ccc(Cl)cc2)nc1S(=O)(=O)c1ccc(Cl)cc1 [BC19530] | 1 to 10 | 1 to 10 |  |  |
| CCC1Oc2c(cc(Br)cc2S(=O)(=O)NCc2ccccc2)NC1=O (stereo not drawn) [BC19230] |  |  | < 0.1 | > 10 |

| SMILES | IC50 (NF-κB; LPS-stimulated) [µM] | IC50 (TNF release; [1]) [µM] | IC50 (NF-κB; [2]) [µM] | IC50 (TNF release; [3]) [µM] |
| --- | --- | --- | --- | --- |
| CCC1Oc2c(cc(Cl)cc2S(=O)(=O)Nc2ccc(F)cc2F)NC1=O (stereo not drawn) [BC19748] |  |  | < 0.1 | > 10 |
| O=S(=O)(NCc1cccnc1)c1ccc2nc(-c3ccc(F)cc3)c(-c3ccc(F)cc3)nc2c1 [BC19557] | < 0.1 | > 10 |  |  |
| Cc1ccc(F)c2c(=O)c(S(=O)(=O)c3ccc(F)c(F)c3)c[nH]c12 [BC19197] |  |  | 0.1 to 1 | > 10 |
| Cc1ccc(S(=O)(=O)c2nc3cc(C(=O)N4CCN(C)CC4)ccc3nc2-c2ccc(F)cc2)cc1F [BC19307] | 0.1 to 1 | < 0.1 |  |  |
| CS(=O)(=O)c1oc(-c2ccccc2)nc1S(=O)(=O)c1cccc(F)c1 [BC19261] | < 0.1 | > 10 |  |  |
| O=C1COc2c(cc(Cl)cc2S(=O)(=O)Nc2ccccc2)N1 [BC19168] |  |  | < 0.1 | > 10 |
| Cc1ccc(NS(=O)(=O)c2cc3c(cc2Cl)NC(=O)C(C)O3)cc1 (stereo not drawn) [BC19717] |  |  | < 0.1 | > 10 |
| OCCn1cc(-c2ccc3nc(-c4ccc(F)cc4)c(-c4ccc(F)cc4)nc3c2)nn1 [BC19396] | < 0.1 | > 10 |  |  |
| CCCNS(=O)(=O)c1cc2c(cc1Cl)NC(=O)C(CC)O2 (stereo not drawn) [BC19214] |  |  | > 10 | > 10 |
| COc1ccc(S(=O)(=O)c2cnccc2O)cc1 [BC19457] |  |  | > 10 | > 10 |
| CN1CCN(C(=O)c2ccc3nc(C(F)(F)F)c(-c4ccncc4)nc3c2)CC1 [BC19149] | > 10 | > 10 |  |  |
| O=C1COc2cc(S(=O)(=O)NCc3ccc(C(F)(F)F)cc3)c(Br)cc2N1 [BC19391] |  |  | > 10 | > 10 |
| CCS(=O)(=O)c1cc2c(c(S(=O)(=O)Nc3ccc(OC)c(Cl)c3)c1)OCC(=O)N2 [BC19547] |  |  | 0.1 to 1 | > 10 |
| CC1Oc2cc(S(=O)(=O)Nc3cccc(Cl)c3)c(Br)cc2N(C)C1=O (stereo not drawn) [BC19905] |  |  | 1 to 10 | > 10 |
| O=c1[nH]ccc2cc(S(=O)(=O)c3cccc(F)c3)ccc12 [BC19520] |  |  | > 10 | > 10 |
| O=S(=O)(c1ccc(F)c(F)c1)c1nc(-c2ccccc2)oc1S(=O)(=O)C1CCCCC1 [BC19277] | < 0.1 | 0.1 to 1 |  |  |
| CN1CCN(C(=O)c2ccc3nc(-c4cccs4)cnc3c2)CC1 [BC19191] | > 10 | > 10 |  |  |
| CC(C)CNS(=O)(=O)c1cc(Br)cc2c1OC(C)C(=O)N2 (stereo not drawn) [BC19227] |  |  | > 10 | > 10 |
| CCC1Oc2cc(S(=O)(=O)Nc3ccc(F)cc3)c(Cl)cc2NC1=O (stereo not drawn) [BC19731] |  |  | 0.1 to 1 | > 10 |

Reference: patent US12606528B2, “Methods and materials for inhibiting NF-kB activity” (University of Pittsburgh - Of the Commonwealth System of …, priority 2019, dated 2026)
